Results taken from US12415145B2, “Compositions that contain lipophilic plant material and surfactant, and related methods” (priority 2019, dated 2025).

Key:
Solubility in water = format: physicochemical
Excerpt: The solubility of cannabinoid target compounds in water can be substantially affected by pH and by temperature. […] At a temperature of 70 degrees Celsius or higher, and pH of 10 or higher, the solubility of CBDA in water is over 20 milligrams per milliliter. Conversely, at a temperature of 4 degrees Celsius or lower and pH 4 of or lower, the solubility of CBDA in water is below 20 micrograms per milliliter. Consequently, a process of washing a plant extract composition that contains CBDA with acidified water having a low temperature can be effective to remove hydrophilic components from the plant extract composition, without removing much CBDA from the plant extract composition.

[1] = Solubility in mineral oil; conditions: under certain conditions
Excerpt: (§1) Another example of a processing step is a step of combining a liquid that contains target compound with anti-solvent. When a target compound is contained in a liquid, e.g., an organic solvent or water (together, “solvents”), an anti-solvent may be used to reduce the capacity of the solvent to contain the target compound, thereby supersaturating the solvent with the target compound. […] The use of an antisolvent can increase the efficiency of purification of a target compound by increasing the saturation of one or more target compounds in a solvent to which the target compounds are added or present. The antisolvent occupies the binding potential of a primary solvent for a target compound, thereby reducing the ability of the primary solvent to contain (e.g., dissolve) the target compound.

[2] = Solubility in high-KB amide surfactant (DMDA / Met10u)
Excerpt: as §1
As an alternative to an “oiling-out” technique followed by a crystallization step, target compound dissolved in an aqueous solution (at high temperature and alkaline pH) can be separated from the aqueous solution by causing the target compound to directly form a separate solid phase such as crystals within the solution, i.e., to “crystallize out” of the solution, without an “oiling-out” step. Depending on the composition of the aqueous solution, e.g., if the aqueous solution contains a sufficiently high concentration and purity of dissolved target compound, the target compound may be caused to form crystals directly by reducing pH and temperature of the aqueous solution. […] A method as described may include adding surfactant (e.g., ninol CAA) or an oil or a solvent or additive that encourages crystallization or alternatively, oiling out.

[3] = Thermal stability (decarboxylation); format: physicochemical; conditions: saturated solution of CBDA in Met10u
Protocol: A saturated solution of CBDA in Met10u is prepared at 30C or preferably at 60C or higher, up to 100C or higher but below 130C. At a temperatures that is at least 130C, CBDA begins to lose its carboxylic moiety (decarboxylation) and become CBD. At temperatures above 130C CBD, not CBDA, could be separated if the desired end product is CBD.

Row | SMILES | solubility of CBDA in water (Solubility in water; temperature of 4 degrees Celsius or lower, pH 4 or lower) | solubility of CBDA in water (Solubility in water; temperature of 70 degrees Celsius or higher, pH of 10 or higher) | solubility in mineral oil [1] | solubility of CBDA in Met10u ([2]; at 60C) [%] | solubility in DMDA ([2]; at 70C) | solubility of CBDA in Met10u ([2]; at OC) [%] | temperature at which CBDA begins to lose its carboxylic moiety (decarboxylation) and become CBD [3] | fraction of dissolved water in the high KB surfactant ([2]; water dissolved in surfactant of plant extract composition) [%]
1 | C=C(C)[C@@H]1CCC(C)=C[C@H]1c1c(O)cc(CCCCC)c(C(=O)O)c1O [CBDA] | below 20 micrograms per milliliter | over 20 milligrams per milliliter | about 6 mg/ml | 100 | over 1000 mg/ml | 1 | at least 130 C | –
2 | C=CCCCCCCCC(=O)N(C)C [STEPOSOL™ MET-10U, N, N-dimethyl 9-decenamide] | – | – | – | – | – | – | – | 15
